From patent publication US7550456B2, “Substituted aryl cycloalkanoyl derivatives and methods of their use” (Wyeth, priority 2003, dated 2009) come the findings set out here.

The experiment concerns the target T1, human hNET (Homo sapiens, UniProt P23975).
T1 construct: expressed in transfected cells; host or cells: MDCK-Net6 (MDCK cells, stably transfected)
Description: Norepinephrine (NE) uptake assay in MDCK-Net6 cells. It counts as cell-based. The note with it: for EC50: test range 1 to 10,000 nM. On the procedure: Cells were plated at 300,000/T75 flask and cells were split twice weekly. […] Cells were plated at 250,000 cells/T75 flask and split twice weekly.
Norepinephrine (NE) Uptake Assay
On day 1, cells were plated at 3,000 cells/well in growth medium and maintained in a cell incubator (37° C., 5% CO2). On day 2, growth medium was replaced with 200 μl of assay buffer (25 mM HEPES; 120 mM NaCl; 5 mM KCl; 2.5 mM CaCl2; 1.2 mM MgSO4; 2 mg/ml glucose (pH 7.4, 37° C.)) containing 0.2 mg/ml ascorbic acid and 10 μM pargyline. Plates containing cells with 200 μl of assay buffer were equilibrated for 10 minutes at 37° C. prior to addition of compounds. A stock solution of desipramine was prepared in DMSO (10 mM) and delivered to triplicate wells containing cells for a final test concentration of 1 μM. Data from these wells were used to define non-specific NE uptake (minimum NE uptake). Test compounds were prepared in DMSO (10 mM) and diluted in assay buffer according to test range (1 to 10,000 nM). Twenty-five microliters of assay buffer (maximum NE uptake) or test compound were added directly to triplicate wells containing cells in 200 μl of assay buffer. The cells in assay buffer with test compounds were incubated for 20 minutes at 37° C. […] The reaction was terminated by decanting the supernatant from the plate. The plates containing cells were washed twice with 200 μl assay buffer (37° C.) to remove free radioligand. The plates were then inverted, left to dry for 2 minutes, then reinverted and air-dried for an additional 10 minutes. The cells were lysed in 25 μl of 0.25 N NaOH solution (4° C.), placed on a shake table and vigorously shaken for 5 minutes. After cell lysis, 75 μl of scintillation cocktail was added to each well and the plates were sealed with film tape. The plates were returned to the shake table and vigorously shaken for a minimum of 10 minutes to ensure adequate partitioning of organic and aqueous solutions. The plates were counted in a Wallac Microbeta counter (PerkinElmer) to collect the raw cpm data.
For each experiment, a data stream of cpm values collected from the Wallac Microbeta counter was downloaded to a Microsoft Excel statistical application program. Calculations of EC50 values were made using the transformed-both-sides logistic dose response program written by Wyeth Biometrics Department.

[1] abbreviates: 1 μM test compound, [3H]NE uptake, read-out: % Inhibition @ 1 μM (hNET).
The mark [2] stands for this setting: MDCK-Net6, read-out: % Inhibition @ 1 μM (hNET), 1 μM test compound, [3H]NE uptake.

Structures can show the parent of a compound that is named as a salt. Where two headings read alike, the source gives them in different places.

Broadly, the inhibition is the change of the read-out against control, counted positive when it falls. As usually defined, the EC50 is the concentration that produces a half-maximal response.

T1 sequence (P23975 whole entry): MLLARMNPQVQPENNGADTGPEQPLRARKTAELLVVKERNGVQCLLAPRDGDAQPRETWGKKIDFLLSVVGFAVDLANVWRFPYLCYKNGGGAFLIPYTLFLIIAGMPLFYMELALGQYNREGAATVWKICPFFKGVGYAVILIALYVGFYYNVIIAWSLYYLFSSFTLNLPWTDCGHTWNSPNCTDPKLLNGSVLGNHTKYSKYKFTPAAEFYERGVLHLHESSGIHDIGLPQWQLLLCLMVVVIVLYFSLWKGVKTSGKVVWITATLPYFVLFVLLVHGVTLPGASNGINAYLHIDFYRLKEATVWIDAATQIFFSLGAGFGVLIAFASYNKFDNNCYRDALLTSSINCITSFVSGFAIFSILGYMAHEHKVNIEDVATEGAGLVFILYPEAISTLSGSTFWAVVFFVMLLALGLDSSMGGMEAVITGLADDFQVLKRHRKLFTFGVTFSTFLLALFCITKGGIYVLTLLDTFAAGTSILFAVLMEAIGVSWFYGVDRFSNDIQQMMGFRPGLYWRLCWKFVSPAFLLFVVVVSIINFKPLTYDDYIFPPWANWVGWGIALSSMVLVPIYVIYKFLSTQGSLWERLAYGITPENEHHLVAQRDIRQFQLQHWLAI

Consider “1-[1-[4-methoxy-3-(trifluoromethoxy)phenyl]-2-(4-methylpiperazin-1-yl)ethyl]cyclohexanoldihydrochloride [Example 403]”, for which the “% Inhibition @ 1 μM (hNET)” value (1 μM test compound, [3H]NE uptake) was determined as 48%.

For `OC1([C@H](CN2CCNCC2)c2cccc(Oc3ccccc3)c2)CCCCC1` (single isomer, unassigned) [Example 357, dihydrochloride], the inhibition at 1 µM under setting [1] is 87%.

For the compound `OC1([C@@H](CN2CCNCC2)c2cccc(Oc3ccccc3)c2)CCCCC1` (single isomer, unassigned) [Example 358, dihydrochloride], under setting [1], the inhibition at 1 µM was determined as 73%.

For the compound `CC(C)(O)CN1CCN(CC(c2cccc(OC(F)(F)F)c2)C2(O)CCCCC2)CC1` (single isomer, unassigned) [Example 372, 1-{2-[4-(2-hydroxy-2-methylpropyl)piperazin-1-yl]-1-[3-(trifluoromethoxy)phenyl]ethyl}cyclohexanol dihydrochloride], the inhibition at 1 µM under setting [1] is 37%.

With `OC1(C(CN2CCNCC2)c2cccc(OC(F)(F)F)c2)CCCCC1` (stereo in doubt) [Example 244, 1-{(1R)-2-piperazin-1-yl-1-[3-(trifluoromethoxy)phenyl]ethyl}cyclohexanol dihydrochloride], under “1 μM test compound, [3H]NE uptake, dihydrochloride, 1 µM”, the “% Inhibition @ 1 μM (hNET)” value is reported as 15.6%.

Take `OC1(C(CN2CCNCC2)c2cccc(OC(F)(F)F)c2)CCCCC1` (stereo not drawn) [Example 23, 1-{2-piperazin-1-yl-1-[3-(trifluoromethoxy)phenyl]ethyl}cyclohexanol dihydrochloride]: the inhibition at 1 µM under setting [2] was 85%. Further, the EC50 ([3H]NE uptake) is 0.35 µM.

With `CN1CCN(CC(c2cccc(OC(F)(F)F)c2)C2(O)CCCCC2)CC1` (stereo not drawn) [Example 24, 1-{2-(4-methylpiperazin-1-yl)-1-[3-(trifluoromethoxy)phenyl]ethyl}cyclohexanol dihydrochloride], the inhibition at 1 µM under setting [2] came out at 85%.

As to `OC1(C(CN2CCNCC2)c2ccc(OCc3ccccc3)cc2)CCCCC1` (stereo not drawn) [Example 27, 1-{1-[4-(benzyloxy)phenyl]-2-piperazin-1-ylethyl}cyclohexanol dihydrochloride], under setting [1], the inhibition at 1 µM is 82%. For the same compound, the EC50 ([3H]NE uptake) was 0.47 µM.

Consider `OC1(C(CN2CCNCC2)c2ccc(OC(F)(F)F)cc2)CCCCC1` (stereo not drawn) [Example 28, 1-{2-piperazin-1-yl-1-[4-(trifluoromethoxy)phenyl]ethyl}cyclohexanol dihydrochloride], for which, under setting [1], the inhibition at 1 µM was 80%.

In the case of `OC1(C(CN2CCNCC2)c2cccc(OC(F)(F)F)c2)CCC1` (stereo not drawn) [Example 46, 1-{2-piperazin-1-yl-1-[3-(trifluoromethoxy)phenyl]ethyl}cyclobutanol dihydrochloride], under setting [1], the inhibition at 1 µM stood at 44%.

`OC1(C(CN2CCNCC2)c2ccc(OCc3ccccc3)cc2)CCC1` (stereo not drawn) [Example 70, 1-{1-[4-(benzyloxy)phenyl]-2-piperazin-1-ylethyl}cyclobutanol dihydrochloride]: under setting [1], the inhibition at 1 µM was found to be 8%.

For the compound `CN1CCN(CC(c2ccc(OCc3ccccc3)cc2)C2(O)CCC2)CC1` (stereo not drawn) [Example 71, 1-[1-[4-(benzyloxy)phenyl]-2-(4-methylpiperazin-1-yl)ethyl]cyclobutanol dihydrochloride], the inhibition at 1 µM under setting [1] was determined as 25%.

As for `CN1CCN(CC(c2cccc(OC(F)(F)F)c2)C2(O)CCC2)CC1` (stereo not drawn) [Example 92, 1-{2-(4-methylpiperazin-1-yl)-1-[3-(trifluoromethoxy)phenyl]ethyl}cyclobutanol dihydrochloride], under setting [1], the inhibition at 1 µM is 13%.

Turning to `OC1(C(CN2CCNCC2)c2cccc(OCc3ccccc3)c2)CCCCC1` (stereo not drawn) [Example 104, 1-{1-[3-(benzyloxy)phenyl]-2-piperazin-1-ylethyl}cyclohexanol dihydrochloride], the inhibition at 1 µM under setting [1] was 3%.

`CN1CCN(CC(c2cccc(OCc3ccccc3)c2)C2(O)CCCCC2)CC1` (stereo not drawn) [Example 108, 1-[1-[3-(benzyloxy)phenyl]-2-(4-methylpiperazin-1-yl)ethyl]cyclohexanol dihydrochloride]: under setting [1], the inhibition at 1 µM was 0%.

Regarding `OC1(C(CN2CCNCC2)c2cccc(OCc3ccccc3)c2)CCC1` (stereo not drawn) [Example 111, 1-{1-[3-(benzyloxy)phenyl]-2-piperazin-1-ylethyl}cyclobutanol dihydrochloride], under setting [1], the inhibition at 1 µM was -3%.

`CN1CCN(CC(c2cccc(OCc3ccccc3)c2)C2(O)CCC2)CC1` (stereo not drawn) [Example 115, 1-[1-[3-(benzyloxy)phenyl]-2-(4-methylpiperazin-1-yl)ethyl]cyclobutanol dihydrochloride]: the inhibition at 1 µM under setting [1] was -10%.

On to `OC1(C(CN2CCNCC2)c2cccc(-c3ccc(Cl)c(Cl)c3)c2)CCCCC1` (stereo not drawn) [Example 135, 1-[1-(3′,4′-dichloro-1,1′-biphenyl-3-yl)-2-piperazin-1-ylethyl]cyclohexanol dihydrochloride], for which the inhibition at 1 µM under setting [1] was found to be 65%. The compound also had an EC50 ([3H]NE uptake) of 0.635 µM.

Take `OC1(C(CN2CCNCC2)c2cccc(-c3ccccc3)c2)CCCCC1` (stereo not drawn) [Example 136, 1-[1-(1,1′-biphenyl-3-yl)-2-piperazin-1-ylethyl]cyclohexanol dihydrochloride]: under setting [1], the inhibition at 1 µM came to 62%. The same compound registered an EC50 ([3H]NE uptake) of 1 µM.

For `OC1(C(CN2CCNCC2)c2cccc(-c3ccc(Cl)cc3)c2)CCCCC1` (stereo not drawn) [Example 137, 1-[1-(4′-chloro-1,1′-biphenyl-3-yl)-2-piperazin-1-ylethyl]cyclohexanol dihydrochloride], under setting [1], the inhibition at 1 µM amounted to 41%.

Regarding `COc1cccc(-c2cccc(C(CN3CCNCC3)C3(O)CCCCC3)c2)c1` (stereo not drawn) [Example 138, 1-[1-(3′-methoxy-1,1′-biphenyl-3-yl)-2-piperazin-1-ylethyl]cyclohexanol dihydrochloride], under setting [1], the inhibition at 1 µM is 44%.

Consider `OC1(C(CN2CCNCC2)c2cccc(-c3cccc(Cl)c3)c2)CCCCC1` (stereo not drawn) [Example 139, 1-[1-(3′-chloro-1,1′-biphenyl-3-yl)-2-piperazin-1-ylethyl]cyclohexanol dihydrochloride], for which, under setting [1], the inhibition at 1 µM stood at 45%.

With `OC1(C(CN2CCNCC2)c2cccc(-c3ccccc3F)c2)CCCCC1` (stereo not drawn) [Example 140, 1-[1-(2′-fluoro-1,1′-biphenyl-3-yl)-2-piperazin-1-ylethyl]cyclohexanol maleate], the inhibition at 1 µM under setting [2] was 52%. This compound had an EC50 ([3H]NE uptake) of 0.87 µM.

Regarding `OC1(C(CN2CCNCC2)c2cccc(-c3ccc(F)c(F)c3)c2)CCCCC1` (stereo not drawn) [Example 147, 1-[1-(3′,4′-difluoro-1,1′-biphenyl-3-yl)-2-piperazin-1-ylethyl]cyclohexanol dihydrochloride], the inhibition at 1 µM under setting [1] was found to be 13%.

Take `OC1(C(CN2CCNCC2)c2ccccc2-c2ccc(Cl)c(Cl)c2)CCCCC1` (stereo not drawn) [Example 148, 1-[1-(3′,4′-dichloro-1,1′-biphenyl-2-yl)-2-piperazin-1-ylethyl]cyclohexanol dihydrochloride]: the inhibition at 1 µM under setting [1] turned out to be 32%.

Regarding `OC1(C(CN2CCNCC2)c2ccccc2-c2ccccc2)CCCCC1` (stereo not drawn) [Example 149, 1-[1-(1,1′-biphenyl-2-yl)-2-piperazin-1-ylethyl]cyclohexanol dihydrochloride], the inhibition at 1 µM under setting [1] turned out to be 31%.

As to `OC1(C(CN2CCNCC2)c2ccccc2-c2cccc(Cl)c2)CCCCC1` (stereo not drawn) [Example 150, 1-[1-(3′-chloro-1,1′-biphenyl-2-yl)-2-piperazin-1-ylethyl]cyclohexanol dihydrochloride], under setting [1], the inhibition at 1 µM was 18%.

As to `OC1(C(CN2CCNCC2)c2ccccc2-c2ccc3c(c2)OCO3)CCCCC1` (stereo not drawn) [Example 151, 1-{1-[2-(1,3-benzodioxol-5-yl)phenyl]-2-piperazin-1-ylethyl}cyclohexanol dihydrochloride], the inhibition at 1 µM under setting [1] came to 12%.

Take `NC1CCN(CC(c2cccc(-c3ccc(Cl)c(Cl)c3)c2)C2(O)CCCCC2)CC1` (stereo not drawn) [Example 152, 1-[2-(4-aminopiperidin-1-yl)-1-(3′,4′-dichloro-1,1′-biphenyl-3-yl)ethyl]cyclohexanol dihydrochloride]: the inhibition at 1 µM under setting [1] is 1%.

With `OC1(C(CN2CCNCC2)c2cccc(-c3ccc(Cl)c(Cl)c3)c2)CCC1` (stereo not drawn) [Example 153, 1-[1-(3′,4′-dichloro-1,1′-biphenyl-3-yl)-2-piperazin-1-ylethyl]cyclobutanol dihydrochloride], under setting [1], the inhibition at 1 µM was 2%.

In the case of `OC1(C(CN2CCNCC2)c2ccc(-c3ccccc3)cc2)CCCCC1` (stereo not drawn) [Example 157, 1-[1-(1,1′-biphenyl-4-yl)-2-piperazin-1-ylethyl]cyclohexanol dihydrochloride], the inhibition at 1 µM under setting [1] worked out at 54%.
